Experimental data as given in the NIST ThermoML archive (doi:10.1021/acs.jced.5b00989).

Test: molar heat capacity at constant pressure; xn = mol fraction of the nth substance listed
Settings: 100 kPa, Liquid, Small sample (50 mg) DSC, x2 = 0.33

OCCOCCOCCO [triethylene glycol] + C[N+](C)(C)CCO.[Cl-]
Settings	molar heat capacity at constant pressure [J/K/mol]
298.15 K	299
300.65 K	300.3
303.15 K	301.5
305.65 K	302.8
308.15 K	303.7
310.65 K	304.5
313.15 K	304.7
315.65 K	304.6
318.15 K	304.6
320.65 K	304.3
323.15 K	304.3
325.65 K	304.9
328.15 K	305.8
330.65 K	306.7
333.15 K	307.4
335.65 K	308.6
338.15 K	309.4
340.65 K	309.9
343.15 K	310
345.65 K	311.8
348.15 K	312.2
350.65 K	312.4
353.15 K	314.6
